Measurements as given in PubChem BioAssay AID264 (DTP/NCI, 2004).
Several values for one entry are separate records, joined by “and”; a condition that tells them apart may be missing. Identical values can stand only once. Results filed as inconclusive are left out.

Test system: nude mice, LX-1 lung xenograft intrarenal, tumor weight T/C
Assay: NCI In Vivo Anticancer Drug Screen. Data for tumor model Human Lung LX-1 Xenograft (intrarenal inoculation) in NU/NU Swiss (nude) mice
Conditions: endpoint: mean tumor weight change, higher = larger tumour
Summary of the method: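 Tumor-bearing mice receive test compound or vehicle; tumor size is then measured in each group. The treated value is divided by the vehicle value to give T/C.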

[1] = dose: 100.0 mg/kg/injection, schedule: Q01DX010 (sc), vehicle: Klucel (hydroxypropylcellulose) (HPC)
[2] = dose: 150.0 mg/kg/injection, schedule: Q04DX003 (sc), vehicle: saline with Tween-80
[3] = dose: 36.0 mg/kg/injection, schedule: Q04DX003 (sc), vehicle: saline with Tween-80
[4] = dose: 600.0 mg/kg/injection, schedule: Q04DX003 (sc), vehicle: saline with Tween-80
[5] = dose: 1200.0 mg/kg/injection, schedule: Q04DX003 (sc), vehicle: saline with Tween-80
[6] = dose: 75.0 mg/kg/injection, schedule: Q04DX003 (sc), vehicle: saline with Tween-80
[7] = dose: 300.0 mg/kg/injection, schedule: Q04DX003 (sc), vehicle: saline with Tween-80
[8] = dose: 7.5 mg/kg/injection, schedule: Q04DX003 (sc), vehicle: Klucel (hydroxypropylcellulose) (HPC)
[9] = dose: 30.0 mg/kg/injection, schedule: Q04DX003 (sc), vehicle: Klucel (hydroxypropylcellulose) (HPC)

Cc1ccc2c(ccc(CC(=S)[S-])[n+]2C)c1
T/C (dose: 50.0 mg/kg/injection, schedule: Q01DX010 (sc), vehicle: Klucel (hydroxypropylcellulose) (HPC)): 56 % of control | T/C [1]: 99 % of control | T/C (dose: 200.0 mg/kg/injection, schedule: Q01DX010 (sc), vehicle: Klucel (hydroxypropylcellulose) (HPC)): 207 % of control | T/C (dose: 400.0 mg/kg/injection, schedule: Q01DX010 (sc), vehicle: Klucel (hydroxypropylcellulose) (HPC)): 72 % of control

O=C(O)CCCc1ccc(N(CCCl)CCCl)cc1
T/C (dose: 16.0 mg/kg/injection, schedule: Q01DX010 (sc), vehicle: saline with Tween-80): 30 % of control

Oc1ccccc1C=NCCC[N-]CCCN=Cc1ccccc1O.[Co]
T/C (dose: 50.0 mg/kg/injection, schedule: Q01DX010 (sc), vehicle: suspension in saline): 124 % of control | T/C (dose: 100.0 mg/kg/injection, schedule: Q01DX010 (sc), vehicle: suspension in saline): 79 % of control

COC(=O)Nc1ccc(Cc2ccc(NC(=O)OC)cc2)cc1
T/C (dose: 800.0 mg/kg/injection, schedule: Q01DX010 (sc), vehicle: saline with Tween-80): 68 % of control

Nc1nc2c(C(=O)N3CCCC3)nnn2c2ccccc12
T/C [2]: 55 % of control

Nc1ccc(C(OC(=O)c2cc3ccccc3c(Cc3c(O)c(C(=O)OC(c4ccc(N)cc4)(c4ccc(N)cc4)c4ccc(N)cc4)cc4ccccc34)c2O)(c2ccc(N)cc2)c2ccc(N)cc2)cc1
T/C [3]: 87 % of control | T/C (dose: 72.0 mg/kg/injection, schedule: Q04DX003 (sc), vehicle: saline with Tween-80): 116 % of control | T/C (dose: 144.0 mg/kg/injection, schedule: Q04DX003 (sc), vehicle: saline with Tween-80): 67 % of control | T/C (dose: 288.0 mg/kg/injection, schedule: Q04DX003 (sc), vehicle: saline with Tween-80): 58 % of control

N#C[Se-].c1ccc([Te+](c2ccccc2)c2ccccc2)cc1
T/C (dose: 6.25 mg/kg/injection, schedule: Q04DX003 (sc), vehicle: Klucel (hydroxypropylcellulose) (HPC)): 75 % of control | T/C (dose: 25.0 mg/kg/injection, schedule: Q04DX003 (sc), vehicle: Klucel (hydroxypropylcellulose) (HPC)): 82 % of control

O=CC=O
T/C (dose: 50.0 mg/kg/injection, schedule: Q01DX010 (sc), vehicle: saline with Tween-80): 82 % of control | T/C (dose: 100.0 mg/kg/injection, schedule: Q01DX010 (sc), vehicle: saline with Tween-80): 61 % of control

O=c1[nH]cnc2n[nH]nc12
T/C (dose: 300.0 mg/kg/injection, schedule: Q04DX003 (sc), vehicle: Klucel (hydroxypropylcellulose) (HPC)): 100 % of control | T/C (dose: 600.0 mg/kg/injection, schedule: Q04DX003 (sc), vehicle: Klucel (hydroxypropylcellulose) (HPC)): 92 % of control | T/C (dose: 1200.0 mg/kg/injection, schedule: Q04DX003 (sc), vehicle: Klucel (hydroxypropylcellulose) (HPC)): 35 % of control | T/C (dose: 2400.0 mg/kg/injection, schedule: Q04DX003 (sc), vehicle: Klucel (hydroxypropylcellulose) (HPC)): 27 % of control

NC(=O)c1csc(C2OC(CO)C(O)C2O)n1 (stereo unspecified)
T/C (dose: 200.0 mg/kg/injection, schedule: Q04DX003 (sc), vehicle: water): 77 % of control | T/C (dose: 400.0 mg/kg/injection, schedule: Q04DX003 (sc), vehicle: water): 64 % of control | T/C (dose: 800.0 mg/kg/injection, schedule: Q04DX003 (sc), vehicle: water): 99 % of control | T/C (dose: 1600.0 mg/kg/injection, schedule: Q04DX003 (sc), vehicle: water): 97 % of control

CCCCCC1c2cc(O)ccc2OC1N1CCOCC1 (stereo unspecified)
T/C [4]: 150 % of control | T/C [5]: 52 % of control | T/C (dose: 2400.0 mg/kg/injection, schedule: Q04DX003 (sc), vehicle: saline with Tween-80): 89 % of control

CN(C)CCN1C(=O)c2cccc3cc([N+](=O)[O-])cc(c23)C1=O
T/C (dose: 9.0 mg/kg/injection, schedule: Q04DX003 (sc), vehicle: saline with Tween-80): 94 % of control | T/C (dose: 18.0 mg/kg/injection, schedule: Q04DX003 (sc), vehicle: saline with Tween-80): 108 % of control | T/C [3]: 95 % of control

O=C1CN(Cc2ccc3c(c2)OCO3)NO1
T/C [6]: 63 % of control | T/C [2]: 76 % of control | T/C [7]: 63 % of control | T/C [4]: 46 % of control

Cc1cc2cc3cc(C)c(N)cc3nc2cc1N
T/C (dose: 100.0 mg/kg/injection, schedule: Q04DX003 (sc), vehicle: saline with Tween-80): 77 % of control | T/C (dose: 200.0 mg/kg/injection, schedule: Q04DX003 (sc), vehicle: saline with Tween-80): 51 % of control | T/C (dose: 400.0 mg/kg/injection, schedule: Q04DX003 (sc), vehicle: saline with Tween-80): 63 % of control | T/C (dose: 800.0 mg/kg/injection, schedule: Q04DX003 (sc), vehicle: saline with Tween-80): 95 % of control

Cn1cnc([N+](=O)[O-])c1Sc1ncn[nH]1
T/C (dose: 100.0 mg/kg/injection, schedule: Q04DX003 (sc), vehicle: suspension in saline): 96 % of control | T/C (dose: 200.0 mg/kg/injection, schedule: Q04DX003 (sc), vehicle: suspension in saline): 96 % of control | T/C (dose: 400.0 mg/kg/injection, schedule: Q04DX003 (sc), vehicle: suspension in saline): 32 % of control

CCOC(=O)Nc1cc2c(c(N)n1)N=C(CN(C)c1ccccc1)CN2
T/C (dose: 12.5 mg/kg/injection, schedule: Q01DX010 (sc), vehicle: Klucel (hydroxypropylcellulose) (HPC)): 166 % of control | T/C (dose: 25.0 mg/kg/injection, schedule: Q01DX010 (sc), vehicle: Klucel (hydroxypropylcellulose) (HPC)): 186 % of control | T/C [1]: 103 % of control

CCN(CC)CCCNc1nccc2c(C)c3[nH]c4ccncc4c3cc12
T/C (dose: 5.0 mg/kg/injection, schedule: Q01DX010 (sc), vehicle: other): 59 % of control | T/C (dose: 10.0 mg/kg/injection, schedule: Q01DX010 (sc), vehicle: other): 49 % of control

COC1CC(CC2CCC(C)C(C(C)C(=O)O)O2)OC2(OC(C)(C3CCC(C)(C4OC(C5OC(O)(CO)C(C)CC5C)CC4C)O3)CC2C)C1C (stereo unspecified)
T/C (dose: 3.75 mg/kg/injection, schedule: Q04DX003 (sc), vehicle: Klucel (hydroxypropylcellulose) (HPC)): 110 % of control | T/C [8]: 102 % of control | T/C [9]: 108 % of control

CCCCCCCCCCCCCCCCCC(=O)Nc1ccn(C2OC(CO)C(O)C2O)c(=O)n1 (stereo unspecified)
T/C [6]: 115 % of control | T/C [2]: 41 % of control | T/C [7]: 38 % of control | T/C [4]: 30 % of control

CCCNC1=C(C)C(=O)C2=C(C1=O)[C@H](COC(N)=O)[C@]1(OC)[C@@H]3N[C@@H]3CN21
T/C (dose: 3.0 mg/kg/injection, schedule: Q04DX003 (sc), vehicle: suspension in saline): 32 % of control | T/C (dose: 24.0 mg/kg/injection, schedule: Q04DX003 (sc), vehicle: suspension in saline): 5 % of control and 17 % of control and 28 % of control

O=[N+]([O-])c1ccc(Sc2ccncn2)c([N+](=O)[O-])c1
T/C [7]: 104 % of control | T/C [4]: 105 % of control | T/C [5]: 98 % of control

C=C/C(C)=C/[C@H](C)C(=O)C[C@H](O)CC1CC(=O)NC(=O)C1
T/C [6]: 111 % of control | T/C [2]: 61 % of control | T/C [7]: 69 % of control | T/C [4]: 70 % of control

COc1cc(NCc2ccc3nc(N)nc(N)c3c2C)cc(OC)c1OC
T/C (dose: 1.25 mg/kg/injection, schedule: Q01DX010 (sc), vehicle: sodium bicarbonate): 76 % of control | T/C (dose: 2.5 mg/kg/injection, schedule: Q01DX010 (sc), vehicle: sodium bicarbonate): 81 % of control | T/C (dose: 5.0 mg/kg/injection, schedule: Q01DX010 (sc), vehicle: sodium bicarbonate): 36 % of control | T/C (dose: 75.0 mg/kg/injection, schedule: Q04DX003 (sc), vehicle: water): 77 % of control | T/C (dose: 150.0 mg/kg/injection, schedule: Q04DX003 (sc), vehicle: water): 67 % of control

C[C@]12CC[C@H]3[C@@H](CCC4=C[C@@H](OC5OCC(OC6OC(CO)C(O)C(O)C6O)C(O)C5O)CC[C@@]43C=O)[C@@]1(O)CCC2C1=CC(=O)OC1 (stereo partly specified)
T/C [8]: 77 % of control | T/C [9]: 79 % of control | T/C (dose: 60.0 mg/kg/injection, schedule: Q04DX003 (sc), vehicle: Klucel (hydroxypropylcellulose) (HPC)): 79 % of control

Cc1nnc2ncccn12
T/C (dose: 100.0 mg/kg/injection, schedule: Q04DX003 (sc), vehicle: saline): 112 % of control | T/C (dose: 200.0 mg/kg/injection, schedule: Q04DX003 (sc), vehicle: saline): 107 % of control

Nc1ncnc2c1ncn2C1C=C(CO)C(O)C1O (stereo unspecified)
T/C (dose: 3.75 mg/kg/injection, schedule: Q04DX003 (sc), vehicle: saline): 49 % of control | T/C (dose: 7.5 mg/kg/injection, schedule: Q04DX003 (sc), vehicle: saline): 70 % of control | T/C (dose: 15.0 mg/kg/injection, schedule: Q04DX003 (sc), vehicle: saline): 58 % of control
